The conditions of data set [1]: 101.33 kPa, Liquid; for viscosity: Capillary tube (Ostwald / Ubbelohde) method; for mass density: Vibrating tube method.
Data set [2] is described as follows: refractive index (Na D-line) (dimensionless). To be noted: 101.33 kPa, Liquid, Standard Abbe refractometry.

Numbers after ± are expanded uncertainties.

What is called viscosity is the internal friction of a fluid under shear. For orientation: mass density means the mass of a sample divided by its volume. One may read the refractive index as a measure of how strongly the sample bends light.

Turning to `CC(=O)c1ccccc1` [acetophenone], the viscosity in data set [1] (303.15 K) is 1.518 ± 0.02 mPa·s; in data set [1] (308.15 K), 1.378 ± 0.018 mPa·s; in data set [1] (313.15 K), 1.291 ± 0.016 mPa·s. For the same compound, the mass density in data set [1] (303.15 K) worked out at 1019.9 ± 0.3 kg/m3; in data set [1] (308.15 K), 1016.9 ± 0.3 kg/m3; in data set [1] (313.15 K) it was 1013.5 ± 0.3 kg/m3. Further, the results for the refractive index in data set [2] (303.15 K), in data set [2] (308.15 K) and in data set [2] (313.15 K) were 1.5294 ± 0.0004, 1.527 ± 0.0004 and 1.525 ± 0.0004, respectively.
Regarding `O=C1CCCCC1` [cyclohexanone], the figures for the viscosity in data set [1] (303.15 K), in data set [1] (308.15 K) and in data set [1] (313.15 K) were 1.816 ± 0.023 mPa·s, 1.657 ± 0.021 mPa·s and 1.542 ± 0.02 mPa·s, respectively. The results for the mass density in data set [1] (303.15 K), in data set [1] (308.15 K) and in data set [1] (313.15 K) were 937.7 ± 0.4 kg/m3, 932.8 ± 0.4 kg/m3 and 928.2 ± 0.4 kg/m3, respectively. The refractive index in data set [2] (303.15 K) is recorded as 1.4465 ± 0.0004; in data set [2] (308.15 K) it was 1.444 ± 0.0004; in data set [2] (313.15 K) it was 1.442 ± 0.0004.
Take `O=C1CCCC1` [cyclopentanone]: the viscosity in data set [1] (303.15 K) is 0.999 ± 0.013 mPa·s; in data set [1] (308.15 K), 0.927 ± 0.012 mPa·s; in data set [1] (313.15 K), 0.865 ± 0.011 mPa·s. The figures for the mass density in data set [1] (303.15 K), in data set [1] (308.15 K) and in data set [1] (313.15 K) were 938.5 ± 0.4 kg/m3, 933.9 ± 0.4 kg/m3 and 929 ± 0.4 kg/m3, respectively. The refractive index in data set [2] (298.15 K) was found to be 1.4352 ± 0.0004; in data set [2] (303.15 K) it was 1.4335 ± 0.0004; in data set [2] (308.15 K), 1.431 ± 0.0004; in data set [2] (313.15 K), 1.429 ± 0.0004.
Take `CCOC(=O)C(=O)OCC` [diethyl ethanedioate]: the viscosity in data set [1] (303.15 K) is 1.623 ± 0.021 mPa·s; in data set [1] (308.15 K) it was 1.48 ± 0.019 mPa·s; in data set [1] (313.15 K), 1.367 ± 0.018 mPa·s. The mass density in data set [1] (303.15 K) is on record as 1066.1 ± 0.4 kg/m3; in data set [1] (308.15 K), 1060.5 ± 0.4 kg/m3; in data set [1] (313.15 K) it was 1054.5 ± 0.4 kg/m3. Besides, the refractive index was 1.4063 ± 0.0004 in data set [2] (303.15 K), 1.404 ± 0.0004 in data set [2] (308.15 K) and 1.402 ± 0.0004 in data set [2] (313.15 K).
`CCC(=O)CC` [pentan-3-one]: the results for the viscosity in data set [1] (303.15 K), in data set [1] (308.15 K) and in data set [1] (313.15 K) were 0.429 ± 0.006 mPa·s, 0.397 ± 0.005 mPa·s and 0.388 ± 0.005 mPa·s, respectively. Moreover, the mass density in data set [1] (303.15 K) is 805.7 ± 0.3 kg/m3; in data set [1] (308.15 K) it was 801.7 ± 0.3 kg/m3; in data set [1] (313.15 K), 797.7 ± 0.4 kg/m3. For the same compound, the results for the refractive index in data set [2] (303.15 K), in data set [2] (308.15 K) and in data set [2] (313.15 K) were 1.3879 ± 0.0004, 1.3857 ± 0.0004 and 1.3835 ± 0.0004, respectively.

Values taken from the NIST ThermoML archive (doi:10.1021/je100715x).
